From patent US6737383B1, “Herbicidal oxadiazolidines” (priority 1999, dated 2004)

Key:
bedstraw = experiment: Test B pre/postemergence bedstraw; assay type: in vivo, Galium aparine
How it was run: (§1)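 Test chemicals in a non-phytotoxic solvent mixture with surfactant were sprayed preemergence onto planted seeds and postemergence onto plants 2 to 18 cm tall (1- to 4-leaf stage). After twelve to sixteen days in a greenhouse, injury was visually rated against untreated controls from 0 (no effect) to 10 (complete control).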

blackgrass = experiment: Test B pre/postemergence blackgrass; assay type: in vivo, Alopecurus myosuroides
How it was run: as §1

surinam grass = experiment: Test B pre/postemergence surinam grass; assay type: in vivo, Brachiaria decumbens
How it was run: as §1

cocklebur = experiment: Test B pre/postemergence cocklebur; assay type: in vivo, Xanthium strumarium
How it was run: as §1

crabgrass = experiment: Test B pre/postemergence crabgrass; assay type: in vivo, Digitaria sanguinalis
How it was run: as §1

giant foxtail = experiment: Test B pre/postemergence giant foxtail; assay type: in vivo, Setaria faberii
How it was run: as §1

morningglory = experiment: Test B pre/postemergence morningglory; assay type: in vivo, Ipomoea hederacea
How it was run: as §1

pigweed = experiment: Test B pre/postemergence pigweed; assay type: in vivo, Amaranthus retroflexus
How it was run: as §1

soybean = experiment: Test B pre/postemergence soybean; assay type: in vivo, Glycine max
How it was run: as §1

velvetleaf = experiment: Test B pre/postemergence velvetleaf; assay type: in vivo, Abutilon theophrasti
How it was run: as §1

wheat = experiment: Test B pre/postemergence wheat; assay type: in vivo, Triticum aestivum
How it was run: as §1

wild oat = experiment: Test B pre/postemergence wild oat; assay type: in vivo, Avena fatua
How it was run: as §1

purple nutsedge = experiment: Test B pre/postemergence purple nutsedge; assay type: in vivo, Cyperus rotundus
How it was run: as §1

rice = experiment: Test B flood test rice; assay type: in vivo, Oryza sativa
How it was run: (§2)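 Read-out is a visual response score from 0 (no effect) to 10 (complete control), assigned by comparison with untreated controls. Treatment was applied at the 2-leaf stage, and plants stayed in the greenhouse for twelve to sixteen days before scoring.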

smallflower flatsedge = experiment: Test B flood test smallflower flatsedge; assay type: in vivo, Cyperus difformis
How it was run: as §2

bamyardgrass = experiment: Test B flood test barnyardgrass; assay type: in vivo, Echinochloa crus-galli
How it was run: as §2

[1] = Preemergence, Rate 62 g/ha, scale of 0 to 10 where 0 is no effect and 10 is complete control
[2] = Preemergence, Rate 125 g/ha, 0 is no effect, 10 is complete control
[3] = Preemergence, Rate 250 g/ha, scale 0 to 10, 0 is no effect, 10 is complete control
[4] = Preemergence, Rate 500 g/ha, scale of 0 to 10 where 0 is no effect and 10 is complete control
[5] = Rate 62 g/ha, Postemergence, scale of 0 to 10 where 0 is no effect and 10 is complete control
[6] = Rate 125 g/ha, Postemergence, scale 0 to 10
[7] = Rate 500 g/ha, Postemergence, scale 0 to 10
[8] = Rate 62 g/ha, headed Pre-emergence (flood test species), scale 0 to 10 (0 no effect, 10 complete control)
[9] = Rate 125 g/ha, Pre-emergence, flood test species, scale 0 to 10 where 0 is no effect and 10 is complete control
[10] = Rate 250 g/ha, Pre-emergence, flood-test species, scale 0 to 10, 0 is no effect, 10 is complete control
[11] = Rate 500 g/ha, headed Pre-emergence (flood test species), scale 0 to 10 (0 no effect, 10 complete control)

Cc1nc(C)c(-n2c(=O)on(C(=O)N(c3ccccc3)C(C)C)c2=O)s1 [Compound 197]
Bedstraw plant response rating (bedstraw; [1]): 0 | Bedstraw plant response rating (0 to 10 scale) (bedstraw; [2]): 0 | Bedstraw plant response rating (bedstraw; [3]): 0 | Plant response rating, Bedstraw (bedstraw; [4]): 0 | Bedstraw plant response rating (bedstraw; [5]): 0 | Bedstraw plant response rating (bedstraw; [6]): 0 | Plant response rating (0 to 10; 0 is no effect, 10 is complete control), Bedstraw (bedstraw; Rate 250 g/ha, Postemergence): 0 | Blackgrass plant response rating (blackgrass; [1]): 0 | Blackgrass plant response rating (0 to 10 scale) (blackgrass; [2]): 0 | Blackgrass plant response rating (blackgrass; [3]): 0 | Plant response rating, Blackgrass (blackgrass; [4]): 0 | Blackgrass plant response rating (blackgrass; [5]): 0 | Blackgrass plant response rating (blackgrass; [6]): 0 | Plant response rating (0 to 10; 0 is no effect, 10 is complete control), Blackgrass (blackgrass; Rate 250 g/ha, Postemergence): 0 | Blackgrass plant response rating (blackgrass; [7]): 0 | B. signalgrass plant response rating (surinam grass; [1]): 0 | B. signalgrass plant response rating (0 to 10 scale) (surinam grass; [2]): 0 | B. signalgrass plant response rating (surinam grass; [3]): 0 | Plant response rating, B. signalgrass (surinam grass; [4]): 0 | B. signalgrass plant response rating (surinam grass; [5]): 0 | B. signalgrass plant response rating (surinam grass; Rate 125 g/ha, Postemergence, scale 0 (no effect) to 10 (complete control)): 0 | Plant response rating, B. signalgrass (surinam grass; Rate 250 g/ha, Postemergence, scale 0 to 10, 0 is no effect, 10 is complete control): 0 | B. signalgrass plant response rating (surinam grass; Rate 500 g/ha, Postemergence, scale 0 to 10, 0 no effect, 10 complete control): 0 | Cocklebur plant response rating (cocklebur; [1]): 0 | Cocklebur plant response rating (0 to 10 scale) (cocklebur; [2]): 0 | Cocklebur plant response rating (cocklebur; [3]): 0 | Plant response rating, Cocklebur (cocklebur; [4]): 0 | Cocklebur plant response rating (cocklebur; [5]): 0 | Cocklebur plant response rating (cocklebur; [6]): 0 | Plant response rating (0 to 10; 0 is no effect, 10 is complete control), Cocklebur (cocklebur; Rate 250 g/ha, Postemergence): 0 | Cocklebur plant response rating (cocklebur; [7]): 0 | Crabgrass plant response rating (crabgrass; [1]): 0 | Crabgrass plant response rating (0 to 10 scale) (crabgrass; [2]): 0 | Crabgrass plant response rating (crabgrass; [3]): 0 | Plant response rating, Crabgrass (crabgrass; [4]): 3 | Crabgrass plant response rating (crabgrass; [5]): 0 | Crabgrass plant response rating (crabgrass; [6]): 0 | Plant response rating (0 to 10; 0 is no effect, 10 is complete control), Crabgrass (crabgrass; Rate 250 g/ha, Postemergence): 0 | Crabgrass plant response rating (crabgrass; [7]): 2 | Giant foxtail plant response rating (giant foxtail; [1]): 0 | Giant foxtail plant response rating (0 to 10 scale) (giant foxtail; [2]): 0 | Giant foxtail plant response rating (giant foxtail; [3]): 0 | Plant response rating, Giant foxtail (giant foxtail; [4]): 3 | Giant foxtail plant response rating (giant foxtail; [5]): 0 | Giant foxtail plant response rating (giant foxtail; [6]): 0 | Plant response rating (0 to 10; 0 is no effect, 10 is complete control), Giant foxtail (giant foxtail; Rate 250 g/ha, Postemergence): 0 | Giant foxtail plant response rating (giant foxtail; [7]): 3 | Morningglory plant response rating (morningglory; [1]): 0 | Morningglory plant response rating (0 to 10 scale) (morningglory; [2]): 0 | Morningglory plant response rating (morningglory; [3]): 0 | Plant response rating, Morningglory (morningglory; [4]): 0 | Morningglory plant response rating (morningglory; [5]): 3 | Morningglory plant response rating (morningglory; [6]): 5 | Plant response rating (0 to 10; 0 is no effect, 10 is complete control), Morningglory (morningglory; Rate 250 g/ha, Postemergence): 5 | Morningglory plant response rating (morningglory; [7]): 0 | Redroot pigweed plant response rating (pigweed; [1]): 0 | Redroot pigweed plant response rating (0 to 10 scale) (pigweed; [2]): 0 | Redroot pigweed plant response rating (pigweed; [3]): 0 | Plant response rating, Redroot pigweed (pigweed; [4]): 0 | Redroot pigweed plant response rating (pigweed; [5]): 0 | Redroot pigweed plant response rating (pigweed; [6]): 0 | Plant response rating (0 to 10; 0 is no effect, 10 is complete control), Redroot pigweed (pigweed; Rate 250 g/ha, Postemergence): 0 | Redroot pigweed plant response rating (pigweed; [7]): 0 | Soybean plant response rating (soybean; [1]): 0 | Soybean plant response rating (0 to 10 scale) (soybean; [2]): 0 | Soybean plant response rating (soybean; [3]): 0 | Plant response rating, Soybean (soybean; [4]): 0 | Soybean plant response rating (soybean; [5]): 0 | Soybean plant response rating (soybean; [6]): 0 | Plant response rating (0 to 10; 0 is no effect, 10 is complete control), Soybean (soybean; Rate 250 g/ha, Postemergence): 0 | Soybean plant response rating (soybean; [7]): 0 | Velvetleaf plant response rating (velvetleaf; [1]): 0 | Velvetleaf plant response rating (velvetleaf; [3]): 0 | Plant response rating, Velvetleaf (velvetleaf; [4]): 0 | Velvetleaf plant response rating (velvetleaf; [5]): 0 | Velvetleaf plant response rating (velvetleaf; [6]): 0 | Plant response rating (0 to 10; 0 is no effect, 10 is complete control), Velvetleaf (velvetleaf; Rate 250 g/ha, Postemergence): 0 | Wheat plant response rating (wheat; [1]): 0 | Wheat plant response rating (wheat; [3]): 0 | Plant response rating, Wheat (wheat; [4]): 0 | Wheat plant response rating (wheat; [5]): 0 | Wheat plant response rating (wheat; [6]): 0 | Plant response rating (0 to 10; 0 is no effect, 10 is complete control), Wheat (wheat; Rate 250 g/ha, Postemergence): 0 | Wild oats plant response rating (wild oat; [1]): 0 | Wild oats plant response rating (wild oat; [3]): 0 | Plant response rating, Wild oats (wild oat; [4]): 0 | Wild oats plant response rating (wild oat; [5]): 0 | Wild oats plant response rating (wild oat; [6]): 0 | Plant response rating (0 to 10; 0 is no effect, 10 is complete control), Wild oats (wild oat; Rate 250 g/ha, Postemergence): 0 | Nutsedge plant response rating (purple nutsedge; [1]): 0 | Nutsedge plant response rating (0 to 10 scale) (purple nutsedge; [2]): 0 | Nutsedge plant response rating (purple nutsedge; [3]): 0 | Plant response rating, Nutsedge (purple nutsedge; [4]): 0 | Nutsedge plant response rating (purple nutsedge; [5]): 0 | Nutsedge plant response rating (purple nutsedge; [6]): 0 | Plant response rating (0 to 10; 0 is no effect, 10 is complete control), Nutsedge (purple nutsedge; Rate 250 g/ha, Postemergence): 0 | Nutsedge plant response rating (purple nutsedge; [7]): 0 | Rice plant response rating (rice; [8]): 0 | Rice plant response rating (rice; [9]): 0 | Rice plant response rating (rice; [10]): 0 | Plant response rating, Rice (rice; [11]): 0 | S. Flatsedge plant response rating (smallflower flatsedge; [8]): 0 | S. Flatsedge plant response rating (smallflower flatsedge; [9]): 0 | S. Flatsedge plant response rating (smallflower flatsedge; [10]): 0 | S. Flatsedge plant response rating (smallflower flatsedge; Rate 500 g/ha, Pre-emergence, flood test species, scale 0 to 10 (0 no effect, 10 complete control)): 0 | Barnyardgrass plant response rating (bamyardgrass; [8]): 0 | Barnyardgrass plant response rating (bamyardgrass; [9]): 0 | Barnyardgrass plant response rating (bamyardgrass; [10]): 0 | Plant response rating, Barnyardgrass (bamyardgrass; [11]): 0
